Results published in patent US20230278972A1, “SUBSTITUTED HALOALKYL SULFONANILIDE HERBICIDES” (FMC Corporation, priority 2020, published 2023).

How the values were obtained:
Format in all cases: in vivo
[1] = tested on: blackgrass (Alopecurus myosuroides); experiment: Test A1 preemergence, blackgrass
Summary of the method: (§1)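 Plants grown in pots of loam/sand mix; preemergence = soil-directed spray on seeded pots, postemergence = spray at 1–2 leaves, height 2–10 cm; test chemicals formulated in non-phytotoxic solvent with surfactant.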

corn (Zea mays) = experiment: Test A1 preemergence, corn
Summary of the method: as §1

[2] = tested on: goosegrass (Eleusine indica); experiment: Test A1 preemergence, goosegrass
Summary of the method: as §1

[3] = tested on: Pigweed, Palmer (palmer amaranth, palmer pigweed, Amaranthus palmeri); experiment: Test A1 preemergence, Pigweed, Palmer
Summary of the method: as §1

[4] = tested on: ragweed (common ragweed, Ambrosia artemisiifolia); experiment: Test A1 preemergence, ragweed
Summary of the method: as §1

[5] = tested on: Pigweed, Palmer (palmer amaranth, palmer pigweed, Amaranthus palmeri); experiment: Test A1 postemergence, Pigweed, Palmer; settings: Postemergence
Summary of the method: as §1

[6] = tested on: ragweed (common ragweed, Ambrosia artemisiifolia); experiment: Test A1 postemergence, ragweed; settings: Postemergence
Summary of the method: as §1

[7] = tested on: galium (catchweed bedstraw, Galium aparine); experiment: Test A1 postemergence, galium; settings: Postemergence
Summary of the method: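 Herbicidal response was scored on plants treated either preemergence, by directed spray onto soil of a loam–sand blend after sowing, or postemergence on potted plants at the one- to two-leaf stage, 2–10 cm high. Test chemicals were carried in a non-phytotoxic solvent mix with surfactant.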

[8] = tested on: ducksalad (Heteranthera limosa); experiment: Test B1 flooded paddy test, ducksalad; settings: 250 g ai/ha, Flood, applied to paddy water, 2-leaf stage, visually evaluated after 10 to 14 days
Text: A dash (-) response means no test result.

[9] = 31 g ai/ha, 0 to 100 scale (0 no effect, 100 complete control)
[10] = 125 g ai/ha, 0 to 100 scale, 0 no effect, 100 complete control
[11] = 31 g ai/ha, 0 to 100 scale (0 no effect, 100 complete control), 10 days

Row | Structure (SMILES) | Plant response rating, Blackgrass [1, 9] | Plant response rating, Blackgrass [1, 10] | Plant response rating, Corn (corn (Zea mays); [9]) | Plant response rating, Corn (corn (Zea mays); [10]) | Plant response rating, Goosegrass [2, 9] | Plant response rating, Goosegrass [2, 10] | Plant response rating, Pigweed, Palmer [3, 9] | Plant response rating, Pigweed, Palmer [3, 10] | Plant response rating, Ragweed [4, 9] | Plant response rating, Ragweed [4, 10] | Plant response rating, Pigweed, Palmer [5, 11] | Plant response rating, Pigweed, Palmer ([5]; 125 g ai/ha, 0 to 100 scale) | Plant response rating, Ragweed [6, 11] | Plant response rating, Ragweed ([6]; 125 g ai/ha, 0 to 100 scale) | Plant response rating, Galium [7, 11] | Plant response rating, Galium ([7]; 125 g ai/ha, 0 to 100 scale) | Plant response rating, Ducksalad (0 to 100 scale, 0 is no effect, 100 is complete control) [8]
1 | Cc1c(NS(=O)(=O)C(F)(F)F)cc(C(=O)N2CCOCC2)c(C)c1C [Compound 289, 1,1,1-Trifluoro-N-[2,3,4-trimethyl-5-(4-morpholinylcarbonyl)phenyl]methanesulfonamide] | 0 | 60 | 0 | 30 | 80 | 90 | 90 | 100 | 0 | 60 | 10 | 60 | 70 | 80 | 60 | 80 | 95
2 | Cc1cc(C)c(C2=NOC3CCCCCC23)cc1NS(=O)(=O)C(F)(F)F (centres unmarked) [Compound 292] | 0 | 30 | 0 | 40 | 80 | 100 | 60 | 60 | 10 | 80 | 0 | 30 | 20 | 40 | 80 | 80 | 95
3 | Cc1cc(C)c(N(C(=O)OC(C)C)S(=O)(=O)C(F)(F)F)cc1C1=NOC2CCCC12 (centres unmarked) [Compound 295] | 0 | 0 | 0 | 0 | 80 | 90 | 0 | 80 | 0 | 0 | 0 | 30 | 50 | 70 | 50 | 60 | 0
4 | Cc1cc(C)c(N(S(=O)(=O)C(F)(F)F)S(=O)(=O)C(F)(F)F)cc1C1=NOC2COCC12 (centres unmarked) [Compound 296] | 10 | 60 | 0 | 70 | 40 | 90 | 10 | 80 | 50 | 90 | 0 | 20 | 20 | 30 | 50 | 80 | 20
5 | Cc1cc(C)c(C2=NOC3COCC23)cc1NS(=O)(=O)C(F)(F)F (centres unmarked) [Compound 297] | 20 | 40 | 0 | 20 | 70 | 90 | 30 | 90 | 20 | 60 | 10 | 20 | 30 | 70 | 80 | 90 | 50
6 | Cc1cc(C)c(N(COC(=O)C(C)(C)C)S(=O)(=O)C(F)(F)F)cc1C1=NOC2COCC12 (centres unmarked) [Compound 301] | 30 | 40 | 0 | 10 | 80 | 100 | 10 | 40 | 0 | 80 | 0 | 30 | 60 | 70 | 70 | 90 | 50
7 | Cc1cc(Br)c(C2=NOC3CCCC23)cc1NS(=O)(=O)C(F)(F)F (centres unmarked) [Compound 302] | 0 | 0 | 0 | 0 | 0 | 90 | 20 | 50 | 0 | 30 | 10 | 40 | 30 | 70 | 0 | 0 | 70
8 | COc1cc(C)c(C2=NOC3(CCCC3)C2)cc1NS(=O)(=O)C(F)(F)F [Compound 304] | 0 | 40 | 0 | 0 | 30 | 90 | 0 | 20 | 0 | 50 | 0 | 0 | 0 | 30 | 0 | 0 | 0
9 | CCc1cc(C)c(NS(=O)(=O)C(F)(F)F)cc1C1=NOC2CCCC12 (centres unmarked) [Compound 305] | 10 | 40 | 10 | 90 | 90 | 90 | 40 | 60 | 0 | 20 | 0 | 40 | 0 | 60 | 50 | 60 | 90
10 | Cc1cc(C(F)(F)F)c(C2=NOC3CCCC23)cc1NS(=O)(=O)C(F)(F)F (centres unmarked) [Compound 306] | 0 | 0 | 0 | 0 | 50 | 100 | 50 | 100 | 0 | 10 | 0 | 40 | 0 | 70 | 60 | 80 | 85
